Experimental data: patent US20260034192A1 (University of Saskatchewan, priority 2022, published 2026)
Marks after values point to notes of the source that are not given here. Square brackets hold non-standard residues; d marks the D form. Peptide text beside a SMILES is read from it. dPhe(4-Cl) = N[C@H](Cc1ccc(Cl)cc1)C(=O)O; d2Nal = N[C@H](Cc1ccc2ccccc2c1)C(=O)O; dCit = NC(=O)NCCC[C@@H](N)C(=O)O; d3Pal = N[C@H](Cc1cccnc1)C(=O)O

Assays:
[1] = system: pubertal Hereford-cross beef heifers; assay: Two 1.5 mg Cetrorelix injections at pre-selection, growing or late-static phase in beef heifers (Example 4); type: in vivo, cattle
Description: The study was conducted on pubertal Hereford-cross beef heifers (n=32) at the U. Sask. Livestock and Forage Centre of Excellence (LFCE). Initial transrectal ultrasonography was performed to confirm the puberty by the presence or absence of a corpus luteum (CL). Animals were also weighed at this time. Animals with a functional CL were administered an intramuscular (im) injection of prostaglandin F2a analog (cloprostenol) to cause CL regression and ovulation. Daily ultrasonography was performed to detect ovulation and to record the number, size and location of follicles and CL in both ovaries. The day of emergence of a follicular wave was initially estimated by sudden increase in the number of 3-4 mm follicles and confirmed retrospectively as the day on which the dominant follicle was first detected at 4 to 5 mm in size (defined as Day 0). Follicular and hormonal data (see next section for endpoints) from all animals was collected for one complete inter-ovulatory interval.
Animals were randomized into 4 groups based on the day of ovulation. Group 1 (control group) heifers were given 3 mL normal saline (sham-treated negative control; n=3 on Days 1 and 2, n=3 on Days 3 and 4, n=2 on Days 6 and 7). Group 2 heifers were given 1.5 mg Cetrorelix on Days 1 and 2 (pre-selection dominant follicle phase; n=8), Group 3 heifers were given Cetrorelix on Days 3 and 4 (dominant follicle growing phase; n=8), and Group 4 heifers were given Cetrorelix on Days 6 and 7 (dominant follicle late-static/early regressing phase; n=8). The dose of Cetrorelix (1.5 mg per treatment), route of administration (intramuscular) and duration of treatment (i.e., 2 doses at 24 hr interval) were selected based on Example 2 and previous studies in cattle (Ulker et al, 2001).
Changes in the size of the dominant follicle, largest subordinate follicle and CL, and the number of follicles in 3-5, 6-8, and 9+mm size categories were recorded daily from initial ovulation to the first post-treatment ovulation. The inter-wave interval was determined based on duration between emergence of successive follicular waves.
Blood samples were also collected every 12 hours by jugular venipuncture for measurement of plasma LH concentrations from −36 hr to +72 hr of treatment. Blood samples were collected daily for measurement of plasma progesterone concentrations from 1 day before to 7 days after treatment. A Proc Mixed repeated measures analysis of variance (SAS version 9.4) was performed to compare serial data (follicle size, follicle numbers, CL size, plasma LH, plasma progesterone).

[2] = system: Brahman x Angus cross beef post-partum cows; assay: Field trial of fixed-time AI after cetrorelix versus estradiol protocol (Example 8); type: in vivo, cattle
Description: This field trial was conducted by a faculty member of the Federal University of Santa Maria at a client beef farm in Brazil in December 2022. A total of 216 Brahman x Angus cross beef post-partum cows were used for this experiment. Cows were divided into two treatment groups ([…]) and were either given cetrorelix 3 mg i/m or estradiol benzoate on a random day of the cycle (defined as Day 0). An intravaginal progesterone device (CIDR) was placed in all cows on Day 0. The CIDR devices were removed on Day 8 and animals were given prostaglandin F2a analog and equine choriogonadotropin (eCG). Fixed-time artificial insemination was done 54 hrs after CIDR removal and animals were given GnRH at this time. Pregnancy diagnosis was performed on Day 30 after artificial insemination. Transrectal ultrasound examinations were performed on Day 0, Day 8, Day 10 and Day 40.

[3] = 30 days after fixed-time artificial insemination

CC(=O)N[C@H](Cc1ccc2ccccc2c1)C(=O)N[C@H](Cc1ccc(Cl)cc1)C(=O)N[C@H](Cc1cccnc1)C(=O)N[C@@H](CO)C(=O)N[C@@H](Cc1ccc(O)cc1)C(=O)N[C@H](CCCNC(N)=O)C(=O)N[C@@H](CC(C)C)C(=O)N[C@@H](CCCNC(=N)N)C(=O)N1CCC[C@H]1C(=O)N[C@H](C)C(N)=O [Cetrorelix, N-acetyl-3-(2-naphthyl)-D-alanyl-4-chloro-D-phenylalanyl-3-(3-pyridyl)-D-alanyl-L-seryl-L-tyrosyl-D-citrullyl-L-leucyl-L-arginyl-L-prolyl-D-alaninamide] (Ac-[d2Nal][dPhe(4-Cl)][d3Pal]SY[dCit]LRP[dA]-NH2)
Days from treatment to next wave emergence ([1]; 1.5 mg i/m on Day 1-2 of wave): 5.9 ± 0.4 days | Days from treatment to next wave's dominant follicle at 9 mm ([1]; 1.5 mg i/m on Day 1-2 of wave): 9.1 ± 0.8 days | Interovulatory Interval ([1]; 1.5 mg i/m on Day 1-2 of wave): 21.5 ± 1.4 | Interwave Interval ([1]; 1.5 mg i/m on Day 1-2 of wave): 6.9 ± 0.4^b | Largest Dominant Follicle Diameter (mm) ([1]; 1.5 mg i/m on Day 1-2 of wave): 10.3 ± 0.6^b mm | Largest Subordinate Follicle Diameter (mm) ([1]; 1.5 mg i/m on Day 1-2 of wave): 7.1 ± 0.5^b mm | Number of Follicles at WE ([1]; 1.5 mg i/m on Day 1-2 of wave): 19.3 ± 2.0 | Time to Largest Dominant (days) ([1]; 1.5 mg i/m on Day 1-2 of wave): 6.3 ± 0.9^ab days | Time to Largest Subordinate ([1]; 1.5 mg i/m on Day 1-2 of wave): 3.1 ± 0.6 days | Length of Wave 2 ([1]; 1.5 mg i/m on Day 1-2 of wave, in d (unit assumed)): 9.3 ± 0.7 | Days from treatment to next wave emergence ([1]; 1.5 mg i/m on Day 3-4 of wave): 5.8 ± 0.5 days | Days from treatment to next wave's dominant follicle at 9 mm ([1]; 1.5 mg i/m on Day 3-4 of wave): 9.5 ± 0.5 days | Interovulatory Interval ([1]; 1.5 mg i/m on Day 3-4 of wave): 20.3 ± 0.4 | Interwave Interval ([1]; 1.5 mg i/m on Day 3-4 of wave): 8.9 ± 0.4^ab | Largest Dominant Follicle Diameter (mm) ([1]; 1.5 mg i/m on Day 3-4 of wave): 10.6 ± 0.4^b mm | Largest Subordinate Follicle Diameter (mm) ([1]; 1.5 mg i/m on Day 3-4 of wave): 6.9 ± 0.4^b mm | Number of Follicles at WE ([1]; 1.5 mg i/m on Day 3-4 of wave): 20.9 ± 2.7 ^ | Time to Largest Dominant (days) ([1]; 1.5 mg i/m on Day 3-4 of wave): 4.6 ± 0.6^b days | Time to Largest Subordinate (days) ([1]; 1.5 mg i/m on Day 3-4 of wave): 4.0 ± 1.0^ days | Length of Wave 2 ([1]; 1.5 mg i/m on Day 3-4 of wave, in d (unit assumed)): 9.1 ± 0.8 | Days from treatment to next wave emergence ([1]; 1.5 mg i/m on Day 6-7 of wave): 4.3 ± 0.6 days | Days from treatment to next wave's dominant follicle at 9 mm ([1]; 1.5 mg i/m on Day 6-7 of wave): 8.3 ± 0.7 days | Interovulatory Interval ([1]; 1.5 mg i/m on Day 6-7 of wave): 19.6 ± 0.6 | Interwave Interval ([1]; 1.5 mg i/m on Day 6-7 of wave): 10.3 ± 0.6^a | Largest Dominant Follicle Diameter (mm) ([1]; 1.5 mg i/m on Day 6-7 of wave): 12.9 ± 0.4^a mm | Largest Subordinate Follicle Diameter (mm) ([1]; 1.5 mg i/m on Day 6-7 of wave): 7.9 ± 0.6^b mm | Length of Wave 2 ([1]; 1.5 mg i/m on Day 6-7 of wave): 8.3 ± 0.5 | Number of Follicles at WE ([1]; 1.5 mg i/m on Day 6-7 of wave): 15.8 ± 1.1 | Time to Largest Dominant (days) ([1]; 1.5 mg i/m on Day 6-7 of wave): 6.8 ± 0.9^ab days | Time to Largest Subordinate ([1]; 1.5 mg i/m on Day 6-7 of wave): 3.9 ± 0.5 days | Wave emergence after the first Cetrorelix treatment irrespective of phase of dominant follicle ([1]; two 1.5 mg (about 3.75 ug/kg) i/m doses 24 hr apart, groups combined): 5.3 ± 0.3 days | Next wave dominant follicle ready for ovulation ([1]; two 1.5 mg i/m doses): 9 days | Conception rate: Percent [2, 3]: 42.6% | Conception rate: Pregnant/AI [2, 3]: 46/108* | Conception rate: Percent ([2]; 30 days after fixed-time artificial insemination, listed as cetrorelix): 42.6% | Size of the dominant follicle on Day 8 (at PGF) ([2]; cetrorelix 3 mg i/m or estradiol benzoate on Day 0, CIDR removal Day 8, in mm): 11.04 ± 0.48 | Size of the dominant follicle on Day 10 (at AI) ([2]; cetrorelix 3 mg i/m or estradiol benzoate on Day 0, in mm): 12.72 ± 0.65
